Assay results reported in ChEMBL document CHEMBL5465560, “Selectivity Literature for EUbOPEN Chemogenomic Library” (2024).

Key:
[1] = biological target: Tyrosine-protein kinase FRK (Homo sapiens) (UniProt P42685); settings: at 10 µM
[2] = biological target: T1, Membrane-associated tyrosine- and threonine-specific cdc2-inhibitory kinase (Homo sapiens) (UniProt Q99640); experiment: Selectivity interaction (Kinase panel (DSF assay)) EUB0001558a PKMYT1
T1 sequence (whole entry): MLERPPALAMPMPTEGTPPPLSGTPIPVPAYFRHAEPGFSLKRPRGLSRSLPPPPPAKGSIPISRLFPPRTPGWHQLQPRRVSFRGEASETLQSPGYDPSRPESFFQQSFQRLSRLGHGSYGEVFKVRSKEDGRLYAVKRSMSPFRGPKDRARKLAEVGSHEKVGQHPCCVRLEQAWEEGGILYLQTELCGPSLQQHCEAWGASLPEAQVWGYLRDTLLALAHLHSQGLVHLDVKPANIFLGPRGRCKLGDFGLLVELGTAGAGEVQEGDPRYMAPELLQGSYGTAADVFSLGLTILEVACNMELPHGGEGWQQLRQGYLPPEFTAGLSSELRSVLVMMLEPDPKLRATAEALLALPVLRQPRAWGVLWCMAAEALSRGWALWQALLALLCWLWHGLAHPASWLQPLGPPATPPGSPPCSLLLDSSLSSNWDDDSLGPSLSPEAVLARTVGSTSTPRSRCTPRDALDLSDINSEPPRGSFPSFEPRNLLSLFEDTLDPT

[3] = biological target: T2, Mitogen-activated protein kinase 13 (Homo sapiens) (UniProt O15264); experiment: Selectivity interaction (Kinase panel (KiNativ target engagement assay in Jurkat cells)) EUB0001635a MAPK13; type: cell-based; settings: Selectivity number of off-targets 0.0, Selectivity number of targets 233.0, Source Knowledge https://www.sciencedirect.com/science/article/pii/S2451945619300674?via%3Dihub, at 1 µM
T2 sequence (whole entry): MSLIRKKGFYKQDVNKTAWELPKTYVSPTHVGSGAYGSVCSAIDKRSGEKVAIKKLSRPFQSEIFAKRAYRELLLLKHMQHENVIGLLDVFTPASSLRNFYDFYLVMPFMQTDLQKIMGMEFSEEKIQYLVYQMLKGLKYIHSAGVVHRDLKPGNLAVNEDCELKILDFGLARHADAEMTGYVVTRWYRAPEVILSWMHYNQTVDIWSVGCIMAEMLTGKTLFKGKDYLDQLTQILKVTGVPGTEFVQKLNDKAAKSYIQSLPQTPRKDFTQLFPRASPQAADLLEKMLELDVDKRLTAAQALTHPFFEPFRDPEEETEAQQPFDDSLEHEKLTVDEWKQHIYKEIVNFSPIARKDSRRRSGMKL

[4] = biological target: T3, Serine/threonine-protein kinase D2 (Homo sapiens) (UniProt Q9BZL6); experiment: Selectivity interaction (KinomeScan (DiscoverX)) EUB0000229b PRKD2; settings: at 10 µM
T3 sequence (whole entry): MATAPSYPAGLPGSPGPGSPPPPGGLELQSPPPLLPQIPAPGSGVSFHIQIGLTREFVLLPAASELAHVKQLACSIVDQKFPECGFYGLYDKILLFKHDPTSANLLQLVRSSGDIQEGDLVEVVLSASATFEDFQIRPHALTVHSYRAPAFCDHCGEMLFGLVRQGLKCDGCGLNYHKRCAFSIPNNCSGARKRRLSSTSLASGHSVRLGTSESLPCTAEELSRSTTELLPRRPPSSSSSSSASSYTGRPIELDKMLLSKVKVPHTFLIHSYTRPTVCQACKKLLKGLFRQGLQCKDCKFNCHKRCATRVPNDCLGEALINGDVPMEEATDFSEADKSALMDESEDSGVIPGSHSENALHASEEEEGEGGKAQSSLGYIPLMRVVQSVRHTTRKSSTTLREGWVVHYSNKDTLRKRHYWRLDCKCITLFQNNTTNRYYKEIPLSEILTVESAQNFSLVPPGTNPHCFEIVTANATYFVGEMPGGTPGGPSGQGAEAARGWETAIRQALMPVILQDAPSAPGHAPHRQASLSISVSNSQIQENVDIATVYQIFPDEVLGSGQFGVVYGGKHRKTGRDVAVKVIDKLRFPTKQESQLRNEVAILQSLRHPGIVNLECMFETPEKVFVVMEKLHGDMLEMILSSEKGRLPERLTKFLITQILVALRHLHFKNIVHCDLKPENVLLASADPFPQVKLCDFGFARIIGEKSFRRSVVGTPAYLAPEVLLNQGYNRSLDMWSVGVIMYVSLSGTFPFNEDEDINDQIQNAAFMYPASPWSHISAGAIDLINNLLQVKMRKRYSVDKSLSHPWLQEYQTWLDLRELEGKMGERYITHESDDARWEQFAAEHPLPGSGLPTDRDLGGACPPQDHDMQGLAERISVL

[5] = biological target: Receptor tyrosine-protein kinase erbB-2 (Homo sapiens, UniProt P04626); experiment: Selectivity interaction (KinomeScan (DiscoverX)) EUB0000618a ERBB2; settings: at 10 µM
Receptor tyrosine-protein kinase erbB-2, sequence (P04626 whole entry): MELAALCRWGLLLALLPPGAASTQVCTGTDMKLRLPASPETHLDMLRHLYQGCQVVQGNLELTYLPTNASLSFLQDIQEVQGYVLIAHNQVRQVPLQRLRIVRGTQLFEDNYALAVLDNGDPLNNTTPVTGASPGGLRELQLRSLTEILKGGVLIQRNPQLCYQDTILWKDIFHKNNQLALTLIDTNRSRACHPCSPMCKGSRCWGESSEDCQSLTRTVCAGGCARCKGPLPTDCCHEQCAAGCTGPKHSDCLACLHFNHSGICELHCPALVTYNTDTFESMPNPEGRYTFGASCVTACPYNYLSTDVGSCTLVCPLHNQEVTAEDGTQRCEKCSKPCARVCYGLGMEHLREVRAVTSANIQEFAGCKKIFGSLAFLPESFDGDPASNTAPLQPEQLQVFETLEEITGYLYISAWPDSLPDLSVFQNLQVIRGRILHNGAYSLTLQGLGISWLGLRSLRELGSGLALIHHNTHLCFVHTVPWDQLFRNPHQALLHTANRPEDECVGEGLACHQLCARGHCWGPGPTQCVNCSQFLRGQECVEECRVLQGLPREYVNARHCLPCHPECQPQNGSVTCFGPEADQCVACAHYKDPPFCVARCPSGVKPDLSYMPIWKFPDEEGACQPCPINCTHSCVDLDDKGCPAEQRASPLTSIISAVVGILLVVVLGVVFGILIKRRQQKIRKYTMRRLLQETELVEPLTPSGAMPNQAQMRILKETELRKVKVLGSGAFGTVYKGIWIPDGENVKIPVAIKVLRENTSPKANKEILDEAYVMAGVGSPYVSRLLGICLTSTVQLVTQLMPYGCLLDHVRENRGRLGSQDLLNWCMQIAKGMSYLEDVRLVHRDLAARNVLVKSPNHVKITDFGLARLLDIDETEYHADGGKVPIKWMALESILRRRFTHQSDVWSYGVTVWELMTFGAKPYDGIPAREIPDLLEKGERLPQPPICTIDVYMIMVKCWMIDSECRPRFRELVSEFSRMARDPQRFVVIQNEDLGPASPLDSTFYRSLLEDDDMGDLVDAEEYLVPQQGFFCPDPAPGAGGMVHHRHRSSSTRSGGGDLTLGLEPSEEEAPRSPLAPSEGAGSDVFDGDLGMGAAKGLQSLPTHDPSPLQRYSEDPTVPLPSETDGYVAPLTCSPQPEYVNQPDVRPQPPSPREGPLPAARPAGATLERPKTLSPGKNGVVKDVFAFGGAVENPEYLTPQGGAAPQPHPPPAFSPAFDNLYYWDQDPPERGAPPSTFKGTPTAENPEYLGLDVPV

Tyrosine-protein kinase FRK (Homo sapiens), sequence (P42685 whole entry): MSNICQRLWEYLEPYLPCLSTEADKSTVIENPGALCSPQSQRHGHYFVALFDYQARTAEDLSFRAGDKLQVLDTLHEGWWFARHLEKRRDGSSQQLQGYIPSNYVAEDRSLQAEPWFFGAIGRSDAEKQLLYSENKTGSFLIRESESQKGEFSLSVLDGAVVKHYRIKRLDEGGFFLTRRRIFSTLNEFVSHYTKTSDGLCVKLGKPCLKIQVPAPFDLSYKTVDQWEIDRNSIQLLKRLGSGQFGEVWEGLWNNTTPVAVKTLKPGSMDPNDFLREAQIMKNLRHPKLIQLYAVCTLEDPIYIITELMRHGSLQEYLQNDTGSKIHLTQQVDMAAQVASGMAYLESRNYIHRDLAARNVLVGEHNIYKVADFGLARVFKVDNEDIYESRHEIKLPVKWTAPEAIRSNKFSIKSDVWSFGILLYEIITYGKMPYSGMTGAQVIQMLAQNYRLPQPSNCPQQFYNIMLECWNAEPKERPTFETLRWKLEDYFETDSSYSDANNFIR

In the case of COCC(=O)NC/C=C/c1ccc2ncnc(Nc3ccc(Oc4ccc(C)nc4)c(C)c3)c2c1 [CP-724714], the % of control [1] is reported as 100%.
CC(C)(O)[C@H](F)CN1Cc2cc(NC(=O)c3cnn4cccnc34)c(N3CCOCC3)cc2C1=O was tested, and the dTM [2] was 0.5 K.
C=CC(=O)Nc1ccc(C(=O)Nc2[nH]nc3c2CN(C(=O)N[C@H](CN(C)C)c2ccccc2)C3(C)C)cc1 was tested, and the % of engagement [3] was -10.3%.
COc1cc(N(C)c2ccnc3ccc(C(F)(F)F)cc23)cc(OC)c1OC gave a % binding [4] of 90%.
In the case of O[C@H]1CC[C@H](Nc2ncc3nc(Nc4c(F)cc(F)cc4F)n([C@H]4CCOC4)c3n2)CC1, the % of control [5] is reported as 52%.
